Assay results as given in publication PMC12197660 (Viruses, 2025).
Values after ≈ are worked out from the molar mass of the structure shown. Values joined by “and” are separate entries in the source; they are usually repeats but may differ in a detail not shown here. Equal entries are not always repeated. Where two headings read alike, the source gives them in different places.

Columns and labels:
[1] = Permeability (MDCK A-to-B); type: in vitro ADME, canine; conditions: dog, MDCK-MDR1, pH 7.4
plasma protein = test: Plasma protein binding; type: in vitro ADME, mouse, rat, dog, monkey, and human
[2] = Hepatic S9 fraction stability; type: in vitro ADME, rat, dog, monkey, and human
[3] = Plasma stability (Table 1, across species); type: in vitro ADME, mouse, rat, dog, monkey, and human
[4] = QWBA tissue distribution of radioactivity; type: in vivo; conditions: oral [14C]ODV 200 mg/kg, rats
[5] = tested on: hydrolases (CatA, CES-1/2, HINT1); test: Enzyme hydrolysis phenotype; type: in vitro ADME
[6] = Oral ODV PK in portal-vein-cannulated monkey; type: in vivo, cynomolgus monkey; conditions: for Time of plasma Cmax in both portal and systemic circulation: analyte after oral ODV 14.4 mg/kg, single monkey
[7] = cited from earlier work
[8] = tested on: OATP1B1/3, P-gp, BCRP, ENT1/2, CNT3; test: Transporter substrate assessment; type: in vitro ADME, human
[9] = Intestinal (GI) S9 fraction stability; type: in vitro ADME, rat, dog, monkey, and human; conditions: for S9 Stability, Intestinal: assessed in rat, dog, monkey, and human
[10] = cited from earlier work; remark: listed apart in the source
LogD = type: physicochemical
[11] = mean ± SD, N = 3, cited from earlier work
Solubility (PBS) = type: physicochemical; conditions: aqueous buffer
[12] = Radiolabeled metabolism and excretion in rats; type: in vivo; conditions: for Share of radioactivity in AUC-pooled plasma: analyte after IV RDV
[13] = tested on: OATP1B1/3, P-gp, BCRP, ENT1/2, CNT3; conditions: cited from earlier work
CES-1 = target: T1, CES-1 (Homo sapiens, UniProt P23141); test: Enzyme hydrolysis phenotype, fraction metabolized by CES-1; type: in vitro ADME
T1 sequence (P23141 18-567): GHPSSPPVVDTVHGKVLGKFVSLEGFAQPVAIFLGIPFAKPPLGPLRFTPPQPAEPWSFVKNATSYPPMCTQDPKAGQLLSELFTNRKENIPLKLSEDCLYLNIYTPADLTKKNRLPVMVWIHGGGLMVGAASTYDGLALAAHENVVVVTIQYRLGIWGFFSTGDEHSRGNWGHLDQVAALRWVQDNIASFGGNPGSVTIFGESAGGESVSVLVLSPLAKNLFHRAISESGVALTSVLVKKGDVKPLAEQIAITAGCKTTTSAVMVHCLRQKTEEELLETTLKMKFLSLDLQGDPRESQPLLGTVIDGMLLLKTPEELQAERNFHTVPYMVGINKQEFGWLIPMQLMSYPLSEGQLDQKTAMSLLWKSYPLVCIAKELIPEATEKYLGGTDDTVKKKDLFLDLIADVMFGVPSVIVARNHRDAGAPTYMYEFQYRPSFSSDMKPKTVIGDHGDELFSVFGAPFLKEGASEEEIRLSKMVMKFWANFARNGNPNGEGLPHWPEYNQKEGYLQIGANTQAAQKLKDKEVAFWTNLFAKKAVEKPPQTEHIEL

[14] = Plasma stability, human plasma; type: in vitro ADME
[15] = in vivo, cyno; cited from earlier work
[16] = cynomolgus monkey, in vivo, iv, 10 mg/kg, 24 h
[17] = cited from earlier work; remark: listed apart in the source
[18] = Plasma stability, cynomolgus monkey plasma; type: in vitro ADME
CatA = target: T2, CatA (Homo sapiens, UniProt P10619); test: Enzyme hydrolysis phenotype, fraction metabolized by CatA; type: in vitro ADME
T2 sequence (P10619 29-480): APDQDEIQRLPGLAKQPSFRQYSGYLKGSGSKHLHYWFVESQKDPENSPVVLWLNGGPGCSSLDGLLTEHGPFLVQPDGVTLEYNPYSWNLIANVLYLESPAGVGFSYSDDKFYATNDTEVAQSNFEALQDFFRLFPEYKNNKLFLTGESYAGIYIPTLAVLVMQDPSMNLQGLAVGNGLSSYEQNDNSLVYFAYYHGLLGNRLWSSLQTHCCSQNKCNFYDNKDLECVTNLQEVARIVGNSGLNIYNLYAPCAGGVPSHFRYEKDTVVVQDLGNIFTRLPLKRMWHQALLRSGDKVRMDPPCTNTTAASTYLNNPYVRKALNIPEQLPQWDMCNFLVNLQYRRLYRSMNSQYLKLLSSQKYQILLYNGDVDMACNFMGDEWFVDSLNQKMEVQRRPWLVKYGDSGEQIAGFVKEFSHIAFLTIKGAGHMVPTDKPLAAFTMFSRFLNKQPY

in vivo = type: in vivo, cynomolgus monkeys
[19] = cynomolgus monkey; cited from earlier work
[20] = Microautoradiography (MARG) of lung and trachea; type: in vivo, Sprague Dawley rats; set-up: Radioactivity in Blood vessels / Radioactivity in Trachea (representative) / Radioactivity in Bronchus (cartilage) / Radioactivity in Bronchus (smooth muscle) / Radioactivity in Bronchus (epithelium) / Radioactivity in Bronchioles / Radioactivity in Alveoli wall: key: +++: moderate levels of silver grains present; ++: low levels of silver grains present; +: background levels of silver grains present; conditions: [3H] compound, 30 min IV infusion 10 mg/kg (3700 µCi/kg), 1 h after infusion; per animal; as to Radioactivity in Alveoli sac: key: +++: moderate levels of silver grains present; ++: low levels of silver grains present; +: background levels of silver grains present; as to Radioactivity in Blood vessels: key: +++: moderate levels of silver grains present; ++: low levels of silver grains present; +: background levels of silver grains present; as to Radioactivity in Bronchioles: key: +++: moderate levels of silver grains present; ++: low levels of silver grains present; +: background levels of silver grains present; as to Radioactivity in Bronchus (cartilage): key: +++: moderate levels of silver grains present; ++: low levels of silver grains present; +: background levels of silver grains present
[21] = human; cited from earlier work
adenosine deaminase = conditions: cited from earlier work
[22] = GS-441524 plasma PK across species; conditions: for half-life: BALB/c (mouse), Sprague Dawley (rat), beagle (dog)
[23] = A-to-B, read-out: Permeability (MDCK A-to-B)
[24] = range over mouse, rat, dog, monkey, and human
[25] = assessed in rat, dog, monkey, and human
[26] = assessed in mouse, rat, dog, monkey, and human
[27] = ODV oral 11.6 mg/kg (9.4 mg-eq/kg)
[28] = PBS, read-out: Solubility (PBS)
[29] = male, Sprague Dawley, rat, in vivo, iv
[30] = cynomolgus monkey, in vivo, iv, 10 mg/kg
[31] = cynomolgus monkey, in vivo, iv, 10 mg/kg, analyte in plasma after IV RDV 10 mg/kg 30-min infusion, mean ± SD, N = 3, read-out: T1/2 in plasma (converted)
[32] = GS-441524 IV 30 min infusion 20 mg/kg

## CC(C)C(=O)OC[C@H]1O[C@@](C#N)(c2ccc3c(N)ncnn23)[C@H](O)[C@@H]1O [ODV, obeldesivir]
[1]; [23]
  Papp A→B at 120 min: 1.8 ×10⁻⁶ cm/s
Plasma protein; [24]
  Plasma protein binding (% free): 56–76 % free
[2]; Hep S9 from cynomolgus monkeys and humans, 2 µM
  Stability in Hep S9 fractions: poor
[2]; [25]
  S9 Stability, Hepatic: Unstable
[3]; [26]
  Plasma stability: Unstable (stable in dog)
[4]
  Persistence of radioactivity in tissues: little [^14C]ODV-related radioactivity was detected after 24 h
  Time by which broad distribution of drug-associated radioactivity was observed: ≤ 0.25 h
[5]
  Enzyme hydrolysis phenotype: CES-1/2
[6]
  Time of plasma Cmax in both portal and systemic circulation: 0.25 h
[6]; portal vs systemic plasma ODV exposures, oral ODV 14.4 mg/kg
  Hepatic extraction of intact ODV absorbed: near complete hepatic extraction
[7]; oral ODV, humans
  Fecal excretion, of administered dose, mean: 32%
  Total mean [14C] dose recovery: greater than 90%
  Urinary excretion, mean: 58%
[8]
  Transporter substrate: BCRP/P-gp
  Transporter substrate (text): substrate for both BCRP and P-gp transporters
[9]; PMSF-free GI S9 from cynomolgus monkeys and humans, 2 µM
  Stability in GI S9 fractions: poor
[9]
  S9 Stability, Intestinal: Unstable
[10]; clinical ODV 350 mg oral tablet
  Oral bioavailability of GS-441524, estimated: 41% to 50
LogD
  logD: 0.9
[11]; [27]
  Plasma GS-441524 AUC0–24h: 21,600 ± 11,000 nM·h
  Plasma GS-441524 T1/2: 2.62 ± 0.55 h
  Plasma GS-441524 Tmax: 1.67 ± 0.58 h
[11]; read-out: Plasma GS-441524 Cmax, ODV oral 11.6 mg/kg (9.4 mg-eq/kg)
  Cmax: 7.57 ± 6.07 µM
Solubility (PBS); [28]
  solubility: ~1000 µg/mL (≈ 2770 µM)
[12]; oral ODV, rats
  Fecal excretion, of administered dose, mean: 52%
  Total mean [14C] dose recovery: greater than 90%
  Urinary excretion, mean: 33%

## CCC(CC)COC(=O)[C@H](C)N[P@](=O)(OC[C@H]1O[C@@](C#N)(c2ccc3c(N)ncnn23)[C@H](O)[C@@H]1O)Oc1ccccc1 [RDV, remdesivir, reference compound]
[1]
  Papp A→B at 120 min: 1.32 ×10⁻⁶ cm/s
Plasma protein; plasma
  Plasma protein binding (% free): 6–14 % free
[13]
  Transporter substrate (text): substrate for both OATP1B1 and P-gp
[2]
  S9 Stability, Hepatic: Unstable
CES-1
  Enzyme hydrolysis phenotype (fm), CES-1: 80%
[14]; human, plasma
  half-life at 2 µM: 1.3 h
[3]
  Plasma stability: Moderately Stable (unstable in mouse, rat)
[15]
  Oral bioavailability: < 1%
[16]
  Lung GS-443902 C24h: 1.39 ± 0.15 nmol/g
  PBMC GS-443902 C24h: 31.0 ± 11.8 µM
[7]; in vivo, iv
  Fecal excretion, of administered dose: ~18%
  Total mean [14C] dose recovery: greater than 90%
  Urinary excretion, mean: 74%
[8]; human
  Transporter substrate: OATP1B1/P-gp
[17]
  Stability in hepatic S9: unstable
[18]; cynomolgus monkey, plasma
  half-life at 2 µM: 6.42 h
CatA
  Enzyme hydrolysis phenotype (fm), CatA: 10%
LogD
  logD: 2.5
other
  Predicted human hepatic extraction: > 0.9
Solubility (PBS)
  solubility: 40.1 µg/mL (≈ 66.5 µM)
[12]; [29]
  Fecal excretion, of administered dose: approximately 25%
  Total mean [14C] dose recovery: greater than 90%
  Urinary excretion, mean: 61%
In vivo; [30]
  Vd: 0.504 ± 0.175 L/kg
  clearance: 40 mL/min/kg

## C[C@H](NP(=O)(O)OC[C@H]1O[C@@](C#N)(c2ccc3c(N)ncnn23)[C@H](O)[C@@H]1O)C(=O)O [GS-704277]
Plasma protein; [24]
  Plasma protein binding (% free): 95–100 % free
[14]; human plasma, 2 µM, 240 min incubation
  Stability in plasma: stable
[3]; assessed in monkey and human
  Plasma stability: Stable ^d
[5]
  Enzyme hydrolysis phenotype: HINT1
[8]; human
  Transporter substrate: OATP1B1/3
[18]; cynomolgus monkey plasma, 2 µM, 240 min incubation
  Stability in plasma: stable
[12]; rats
  Share of radioactivity in AUC-pooled plasma: ~20%
In vivo; [31]
  half-life: 0.56 ± 0.01 h

## N#C[C@@]1(c2ccc3c(N)ncnn23)O[C@H](CO)[C@@H](O)[C@H]1O [GS-441524]
[1]; [23]
  Papp A→B at 120 min: 0.16 ×10⁻⁶ cm/s
Plasma protein; [24]
  Plasma protein binding (% free): 85–99 % free
[2]; [25]
  S9 Stability, Hepatic: Stable
[3]; [26]
  Plasma stability: Stable
[6]
  Time of plasma Cmax in both portal and systemic circulation: 1 h
[7]; analyte after IV RDV, humans
  Share of total radioactivity in plasma: ~ 53%
[7]; analyte after oral ODV, humans
  Share of total radioactivity in plasma: > 97%
  Share of total sample radioactivity in feces: 98%
[8]
  Transporter substrate (text): substrate for P-gp
[8]; human
  Transporter substrate: BCRP/P-gp ENT1/2/CNT3
[9]
  S9 Stability, Intestinal: Stable
[19]
  Stability in plasma: stable
[10]; oral solution (55 °C) of GS-441524, human PK
  Oral bioavailability of GS-441524, estimated: < 15%
LogD
  logD: < 0.3
[11]; [32]
  Plasma GS-441524 AUC0–24h: 124,000 ± 11,000 nM·h
  Plasma GS-441524 Tmax: 0.516 ± 0.058 h
[20]
  Radioactivity in Alveoli sac: ++ (2×) and +
  Radioactivity in Alveoli wall: +++
  Radioactivity in Blood vessels: +++
  Radioactivity in Bronchioles: +++
  Radioactivity in Bronchus (cartilage): ++ and +++
  Radioactivity in Bronchus (epithelium): ++ and +++
  Radioactivity in Bronchus (smooth muscle): ++
  Radioactivity in Trachea (representative): ++
[21]
  Stability in plasma: stable
Solubility (PBS); [28]
  solubility: 26.5 µg/mL (≈ 91 µM)
Adenosine deaminase
  Adenosine deaminase substrate: weak substrate for adenosine deaminase
[12]; rats
  Share of radioactivity in AUC-pooled plasma: approximately 70%
[12]; analyte after oral ODV, rats
  Share of total radioactivity in plasma: > 97%
  Share of total sample radioactivity in feces: ~ 85%
In vivo; [31]
  half-life: 16.1 ± 4 h
[22]; plasma, iv
  half-life: 0.7 to 3.4 h
[22]; plasma, po
  half-life: 1.4 to 4.2 h
[22]; IV, across species
  Volume of distribution: moderate volume of distribution
  clearance: low to moderate clearance
[22]; cynomolgus monkey, plasma, po
  bioavailability: ~5%

## N#C[C@@]1(c2ccc3c(N)ncnn23)O[C@H](COP(=O)(O)OP(=O)(O)OP(=O)(O)O)[C@@H](O)[C@H]1O [GS-443902]
In vivo; analyte in PBMC after IV RDV 10 mg/kg 30-min infusion, N = 3
  T1/2 in PBMC: 29.4 ± 3.0 h
In vivo; cynomolgus monkey, in vivo, iv, 10 mg/kg, analyte in PBMC after IV RDV 10 mg/kg 30-min infusion, N = 3, read-out: T1/2 in PBMC (converted)
  half-life: 29 h

## N#CC1(c2ccc3c(=O)[nH]cnn23)OC(CO)C(O)C1O (stereo not drawn) [Deaminated nucleoside]
[12]; minor metabolite after oral ODV, rats and humans
  Level in feces, fold lower than GS-441524: 5- to 10 fold
